A short description of data set [1]: Microsomal stability assay, human liver microsomes. Format: in vitro ADME. Conditions: pre-incubation with Cobi vs without. On the technique in general: Liver microsomes are a subcellular fraction often used to study metabolism.
A short description of data set [2]: Microsomal stability assay, mouse liver microsomes. To be noted: pre-incubation with Cobi vs without. Format: in vitro ADME.
Data set [3] can be described thus: Cytotoxicity assay. Conditions: human, TZM-GFP cells. Format: cell-based.

Turning to `CN(C(=O)[C@H](Cc1ccccc1)NC(=O)Cc1c[nH]c2ccccc12)c1ccc(Br)cc1` [Compd 32, (S)-2-(2-(1H-indol-3-yl)acetamido)-N-(4-bromophenyl)-N-methyl-3-phenylpropanamide], the “increase of half-life with Cobicistat (HLM)” value in data set [1] is listed as 62 fold. Besides, in data set [2], the “increase of half-life with Cobicistat (MLM)” value came out at 74 fold.

In general, CC50 refers to the concentration that lowers cell viability or growth by half. In data set [3], `CN(C(=O)[C@H](Cc1ccccc1)NC(=O)Cc1c[nH]c2ccccc12)c1ccc(Cl)nc1` [Compd 37, (S)-2-(2-(1H-indol-3-yl)acetamido)-N-(6-chloropyridin-3-yl)-N-methyl-3-phenylpropanamide] showed a CC50 at 72 h of 57 ± 0.3 µM.

The values above are taken from PMC7492092 (European journal of medicinal chemistry, 2020).
